Reference: patent US20030229048A1, “Methods and compositions for inhibition of irritation by disaccharide and metal ions” (priority 2002, published 2003)

What was measured:
Assay type in all cases: cell-based, Human
[1] = tested on: Keratinocyte cells; experiment: MTT assay, cytotoxicity / cell viability of keratinocyte cells
Method: Reagents methyl salicylate, ethacrynic acid, trehalose A, B, and C were obtained from Sigma-Aldrich (St. Louis, Mo.). Trehaloses were dissolved in keratinocyte media. Methyl salicylate was diluted in keratinocyte media. Ethacrynic acid was dissolved in DMSO. Keratinocyte cells were grown to 100% confluency as per the instructions given by ATCC. Then the cells were trypsinized to dislodge cells and spun at 3000 rpm for 3 min. The supernatant was aspirated and the cells were re-suspended in fresh media at a density of 1.0×10^6 cells per mL. The cell suspension was the pipetted into a 96-well plate (200 ul of per well) and cells were incubated overnight at 37° C. The next day morning media was aspirated, and 100 uL of fresh medium containing methyl salicylate (2%) was added to all the wells except for the (−) control wells. No MS was included in the (−) control wells. Then 100 uL of medium containing the various test reagents were added to the wells so that the final concentrations were as indicated in FIGS. 2-7. The 96-well plate was then incubated. […] Then the presence of IL-1α was determined using ELISA kit (R&D systems, Inc.) as per the manufacturer's specifications. […] Then the formazan product (metabolic product of MTT) in the wells was solubilized and the absorbance was measured using a plate reader. […]

[2] = tested on: IL-1α; experiment: IL-1α release (ELISA) in keratinocyte cells stimulated with methyl salicylate; conditions: for inhibition of MS induced IL-1α release: summary statement
Method: Reagents methyl salicylate, ethacrynic acid, trehalose A, B, and C were obtained from Sigma-Aldrich (St. Louis, Mo.). Trehaloses were dissolved in keratinocyte media. Methyl salicylate was diluted in keratinocyte media. Ethacrynic acid was dissolved in DMSO. Keratinocyte cells were grown to 100% confluency as per the instructions given by ATCC. Then the cells were trypsinized to dislodge cells and spun at 3000 rpm for 3 min. The supernatant was aspirated and the cells were re-suspended in fresh media at a density of 1.0×10^6 cells per mL. The cell suspension was the pipetted into a 96-well plate (200 ul of per well) and cells were incubated overnight at 37° C. The next day morning media was aspirated, and 100 uL of fresh medium containing methyl salicylate (2%) was added to all the wells except for the (−) control wells. No MS was included in the (−) control wells. Then 100 uL of medium containing the various test reagents were added to the wells so that the final concentrations were as indicated in FIGS. 2-7. The 96-well plate was then incubated. After incubation for four hours at 36° C., the supernatant from the wells was transferred to centrifuge tubes and centrifuged to remove the cell debris. Then the presence of IL-1α was determined using ELISA kit (R&D systems, Inc.) as per the manufacturer's specifications. The cells remaining in the wells were treated with pre-warmed media containing MTT solution and incubated for four hours. Then the formazan product (metabolic product of MTT) in the wells was solubilized and the absorbance was measured using a plate reader.
Human keratinocytes were stimulated with MS in the absence or the presence of trehalose compounds, to find an optimal concentration of trehalose at which IL- 1α production is reduced by half compared to the positive control.

[3] = tested on: IL-1α; experiment: as above; conditions: substance alone; earlier work of the applicant

## [O]=[Zn] [Zinc Oxide]
[1]; concentrations at which ZnO inhibited MS stimulated IL-1α release, FIG. 7
  MTT concentration levels in Keratinocyte cells (cell viability): no effect
[1]; high concentrations of zinc oxide, FIG. 4 experiment
  state of the cells: the cells were not active
[2]; FIG. 5, lower concentrations
  effect on IL-1α levels in Keratinocyte cells stimulated by 1% Methyl Salicylate: significant dose dependent decrease
[2]; concentration levels 10%-1.25%, FIG. 4
  IL-1α levels in Keratinocyte cells stimulated with 1% Methyl Salicylate: large decrease
[2]; high concentrations, FIG. 4
  MS stimulated IL-1α levels: dramatic reduction
[2]; concentration not given
  inhibition of MS induced IL-1α release: able to block MS induced IL-1α production as effectively as trehalose A
[2]; test substance at 0.000125%, FIG. 5
  reduction in IL-1α concentrations induced by Methyl Salicylate: greater than 50%

## OC[C@H]1O[C@H](O[C@H]2O[C@H](CO)[C@@H](O)[C@H](O)[C@H]2O)[C@H](O)[C@@H](O)[C@@H]1O [Trehalose B, trehalose]
[2]; FIG. 5, lower concentrations
  effect on IL-1α levels in Keratinocyte cells stimulated by 1% Methyl Salicylate: no effect
[2]; any concentrations that were tested, FIGS. 2 and 3
  effect on IL-1α levels in Keratinocyte cells stimulated by 1% Methyl Salicylate: no effect
[2]; at any of 2.5%, 5%, 10%, FIG. 2
  effect on IL-1α levels compared to MS 1% (positive control): no effect
[2]; concentration not stated, listed as trehalose B
  inhibition of MS induced IL-1α release: no effect

## COC(=O)c1ccccc1O [MS, Methyl Salicylate]
[3]
  release of primary cytokines, especially IL-1α, in epidermal keratinocytes: stimulates release

## OC[C@H]1O[C@H](O[C@H]2O[C@H](CO)[C@@H](O)[C@H](O)[C@H]2O)[C@H](O)[C@@H](O)[C@@H]1O [Trehalose C, trehalose]
[2]; concentration not stated, listed as trehalose C
  inhibition of MS induced IL-1α release: no effect

## OC[C@H]1O[C@H](O[C@H]2O[C@H](CO)[C@@H](O)[C@H](O)[C@H]2O)[C@H](O)[C@@H](O)[C@@H]1O [Trehalose A, trehalose]
[2]; low concentrations of 0.1-2.5%
  effect on IL-1α levels, MS stimulated: neither trehalose A nor B showed any effect
[2]; concentration not stated, listed as trehalose A
  inhibition of MS induced IL-1α release: capable of inhibiting MS induced IL-1α release
[2]; test substance at 2.5%, FIG. 2
  reduction in IL-1α levels compared to MS 1% (positive control): no effect
[2]; test substance at 5%, FIG. 2
  reduction in IL-1α levels compared to MS 1% (positive control): much lower levels of reduction

## C=C(CC)C(=O)c1ccc(OCC(=O)O)c(Cl)c1Cl [Ethacrynic Acid, reference compound]
[2]; concentration not given
  inhibition of MS induced IL-1α release: inhibited the IL-1α release by MS
[2]; test substance at 0.16%, FIG. 2
  reduction in IL-1α levels compared to MS 1% (positive control): over 50%
